Reference: US9682928B2 (NeuroPro Therapeutics, Inc., priority 2009, dated 2017)
Like-named read-outs stand apart in the source and are kept apart here.

Legend:
Rat = experiment: MES (Rat); assay type: in vivo
[1] = Blood levels in rat following IP administration; assay type: in vivo; conditions: rats
Sprague-Dawley rats = experiment: Kainic acid induced seizures in rats; assay type: in vivo, rat; set-up: key to Seizures Severity Mean ± SD (grade 0 to IV): seizure grade 0 = no response to IV = status epilepticus; conditions: for change in vivo at 20 µmol/kg / change in vivo at 100 mg/kg: Rattus norvegicus, 2 h; for change in vivo at 20 µmol/kg: vs DMSO control; for change in vivo at 100 mg/kg: ip; for Reduction in seizure score / severity: bumetanide 100 mg/kg i.p. (274 umoles/kg)
Experimental: Formulation of kainic acid was performed by NTS as a stock solution by reconstituting kainic acid with (100%) saline that was stored at 4° C. Vehicle control received saline solution. […] The research investigators were blinded to the treatment groups.
Solutions were prepared fresh daily just prior to use; dosing of all 10 rats with any given compound occurred on a single day after preparing the dosing solution. […] Unused remaining dosing solutions were stored frozen.
Animals were maintained in a temperature- and light-controlled environment in accord with the principles and procedures of the National Institutes of Health Guidelines for Care and Use of Laboratory Animals. Seizures were induced in adult, male Sprague-Dawley rats (260-300 g) by injection of KA (15 mg/kg, i.p.). In addition, animals were injected with test compounds following kainic acid to determine the effects on protection from epilepsy. Animals were monitored behaviorally for seizures for 2 hours after injection.
Seizure activity was initially characterized as either yes (1) or no (0) within a 2 hour period following injection of KA. A seizure severity grade was assigned based on the maximal response achieved on a scale from 0 to IV as follows: 0, no response; I, single limb clonus and scratching; II, multiple limb clonus and staggering gait; […], limb clonus, tonic extension of limbs and falling; IV, continuous grade III seizures for longer than 30 min (status epilepticus).
The results were expressed as the mean±standard deviation (SD). The significance of difference in the epileptic data was analyzed using a one-way analysis of variance (ANOVA) followed by Fisher's post hoc test. Repeated-measures ANOVA were computed on the monitoring data and the significance of the difference among groups were evaluated by Fisher's post hoc test.
All groups were subjected to kainic acid.
The induction of seizures in rats with kainic acid was determined as either yes seizures (1) or no seizures (0).

Male Rj: NMRI mice = experiment: Formalin paw test (late phase) in the mouse; assay type: in vivo; conditions: for Antinociception compared to gabapentin (584 μmol/kg; 100 mg/kg): late phase, at highest two doses (NTP-2014, NTP-2024) or highest dose (NTP-2026, Bumetanide)
Experimental: The method described herein detects analgesic/anti-inflammatory activity, generally used to test compounds for pain relief, in particular diabetic neuropathy or nociceptive neuropathy. See Wheeler-Aceto, et al. (1991) Psychopharmacology 104: 35-44.
Mice were given an intraplantar injection of 5% formalin (25 μl) into the posterior left paw. This treatment induces paw licking in control animals. Mice were briefly observed at 1 minute intervals between 15 and 50 minutes after the injection of formalin and the number of occasions that the mice were observed licking the injected paw was recorded. There were 10 mice per group and the test was performed “blind.”
The experiment included 11 groups. Data was analyzed by comparing treated groups with vehicle control using unpaired Mann-Whitney U tests.
Gabapentin (100 mg/kg i.p.) administered under the same experimental conditions, was used as reference substance. The experiment included several groups. Data was analyzed by comparing treated groups with vehicle control using unpaired Mann-Whitney U tests.

primate = experiment: Acute primate seizure models; conditions: in vivo
From the text: FIG. 13 depicts epileptiform spikes and bursts generated using software for the automatic quantification epileptiform activity. FIG. 13A depicts after-discharge activity that was elicited by 4 seconds of electrical stimulation to primate sensory cortex. The software developed by Haglund and Hochman (2007) finds the envelope around a burst of spikes and calculates the duration of the burst, the number of spikes within the burst, and the average spike amplitude of all spikes comprising the burst.
FIG. 13B depicts a typical spike generated by an acute bicuculline focus in primate motor cortex. The bicuculline model generates epileptiform activity that is similar to spontaneous interictal spiking in human subjects. Analysis of the data by the software identifies the time of occurrence of each spike and its peak-to-peak amplitude. This software can automatically process entire data sets consisting of hours of recorded data from multiple traces and generate an output of the data. Statistical analysis of data sets from multiple experiments can then be used to analyze the effects of various treatments (e.g., compounds that suppress epliptiform activity). See Haglund and Hochman (2007) “Imaging of Intrinsic Optical Signals in Primate Cortex during Epileptiform Activity.” Epilepsia 48(Suppl. 4): 65-74; See also Haglund and Hochman (Feb. 23, 2005) J. Neurophysiol. 94: 907-918.

adult mice (C57/B16) = experiment: Mesial temporal lobe epilepsy model (mice), hippocampal discharges; assay type: in vivo, mouse; conditions: for Cumulative duration of hippocampal discharges / Number of hippocampal discharges: 50 mg/kg for NTP-2014 and NTP-2026, 150 mg/kg for NTP-2024, NTP-2006, NTP-1007, NTP-1003; for Suppression of discharges through 80 minutes post-dose: 25 and 50 mg/kg (NTP-2014), 50 mg/kg (NTP-2026); for Significant decrease in cumulative duration of and total number of hippocampal discharges: dose-response study, mice
Experimental: Antiepileptic protocol: Up to eight adult mice (C57/B16) are injected with kainate (1 nmol in 50 nl) and are implanted with a bipolar electrode in the dorsal hippocampus using stereotaxic techniques under general anesthesia. […] Drug conditions are counter-balanced, the animals being used as their own controls. Digital EEG recordings are performed in freely moving animals for 20 min pre-injection and 80 min post-injection. The effects of the injected compound are compared versus vehicle injections and reference period (pre-dose). Upon completion of the experiment, standard histological analysis are performed to verify electrode location, cell losses in CA1, CA3 and hilus, as well as dentate gyrus dispersion. Only animals with all characteristics of MTLE are used in data analysis. […] The results below are normalized to the pre-dose condition for each of the treatment group including DMSO and saline vehicle controls. Doses of test article compounds were 50 mg/kg for NTP-2014 and NTP-2026 and 150 mg/kg for NTP-2024, NTP-2006, NTP-1007, and NTP-1003. Therefore the bumetanide, furosemide, piretanide, azosemide, and torsemide esters and amide analogs described herein may be used in therapeutic methods to treat seizures.

[2] = Solubility in dosing vehicle (0.2% HPMC in physiological saline); assay type: physicochemical; conditions: NTP-2024: 180 mg/kg or 18 mg/ml; NTP-2026: 100 mg/kg or 10 mg/ml
[3] = group 11, bumetanide 100 mg/kg (274 umoles/kg)
[4] = kainic acid 15 mg/kg, rat, 20 μmoles/kg (bumetanide 7.3 mg/kg i.p.)
[5] = i.p. 30 minutes before the test, 50 μmol/kg (NTP-2006 23.9, NTP-2024 21.7, NTP-1007 19.3, NTP-2014 21, NTP-2026 23.1 mg/kg)
[6] = i.p., 250 μmol/kg (NTP-2006 119, NTP-2024 108, NTP-1007 96.5, NTP-2014 105, NTP-2026 116 mg/kg)
[7] = i.p., 500 μmol/kg (NTP-2006 239, NTP-2024 217, NTP-1007 193, NTP-2014 210, NTP-2026 231 mg/kg)

**Q.** For `CCCCNc1cc(C(=O)O)cc(S(N)(=O)=O)c1Oc1ccccc1` [Bumetanide, reference compound], which “Activity in MES” value (Rat; doses up to 200 mg/kg, no metabolic inhibitor coadministered) is on record?
**A.** No activity at doses up

**Q.** And the “Effect of inhibitor pre-treatment on exposures and half-life” value [1]?
**A.** with inhibitor increased bumetanide exposures and half-life;

**Q.** What about the “Seizures Severity Mean ± SD (grade 0 to IV)” value (Sprague-Dawley rats; KA 15 mg/kg i.p., 20 μmoles/kg IP) of the same molecule?
**A.** 0.7000 ± 0.8233

**Q.** And the “Seizures Mean ± SD (1 = yes, 0 = no)” value (Sprague-Dawley rats; KA 15 mg/kg i.p., 20 μmoles/kg IP, 2 hours)?
**A.** 0.5000 ± 0.5270

**Q.** And the change in vivo at 20 µmol/kg (Sprague-Dawley rats; 20 μmoles/kg IP, read-out: Percent reduction in Seizures)?
**A.** -44.4%

**Q.** What about the change in vivo at 20 µmol/kg (Sprague-Dawley rats; 20 μmoles/kg IP, read-out: Percent reduction in Seizures Severity) of the same molecule?
**A.** -70.8%

**Q.** What about the change in vivo at 100 mg/kg (Sprague-Dawley rats; read-out: Percent reduction in Seizures) of the same molecule?
**A.** -88.9%

**Q.** And the change in vivo at 100 mg/kg (Sprague-Dawley rats; read-out: Percent reduction in Seizures Severity)?
**A.** -95.8%

**Q.** And the “Reduction in seizure score / severity” value (Sprague-Dawley rats)?
**A.** seizures (S); 96%

**Q.** What about the “Reduction in seizure score / severity” value (Sprague-Dawley rats; listed as bumetanide) of the same molecule?
**A.** 95.8%

**Q.** What about the Reduction in seizures (Sprague-Dawley rats; bumetanide 100 mg/kg i.p., listed as bumetanide) of the same molecule?
**A.** 88.9%

**Q.** And the “Seizures Mean ± SD (1 = yes, 0 = no)” value (Sprague-Dawley rats; [3])?
**A.** 0.1000 ± 0.3162

**Q.** And the “Seizures Severity Mean ± SD (grade 0 to IV)” value (Sprague-Dawley rats; [3])?
**A.** 0.1000 ± 0.3162

**Q.** And the “Reduction in seizure severity / seizure score” value (Sprague-Dawley rats; [4])?
**A.** seizures (NS); 71%

**Q.** What about the “Reduction in seizures / seizure activity” value (Sprague-Dawley rats; [4]) of the same molecule?
**A.** 44% reduction in

**Q.** And the “Reduction in seizure severity / seizure score” value (Sprague-Dawley rats; kainic acid 15 mg/kg, rat, 20 μmoles/kg (bumetanide 7.3 mg/kg i.p.), listed as bumetanide)?
**A.** 70.8%

**Q.** What about the “Decrease in pain, Formalin Paw Test (Mice) - Late Phase” value (from here on “Decrease in pain, Formalin Paw Test”) (Male Rj: NMRI mice; at 50, 250, 500 μmol/kg) of the same molecule?
**A.** Significant decrease in pain at 50 (p < 0.05), 250 (p < 0.01),

**Q.** And the “Antinociception compared to gabapentin (584 μmol/kg; 100 mg/kg)” value (Male Rj: NMRI mice)?
**A.** 500 (p < 0.001 ) μmol/kg; 18.2, 91.1, 182 mg/kg; better

**Q.** What about the “Suppression of epileptiform activity” value (primate) of the same molecule?
**A.** significantly more than furosemide

**Q.** Which Significant adverse events (Rat; 100 mg/kg) does the source give for `CCCCN(CCCC)c1cc(C(=O)O)cc(S(N)(=O)=O)c1Oc1ccccc1` [NTP-2014, 3-Aminosulfonyl-5-N,N-dibutylamino-4-phenoxybenzoic acid] here?
**A.** seen at 300 mg/kg. No

**Q.** And the Toxic effects (Rat; 300 mg/kg)?
**A.** mg/kg. Toxic effects

**Q.** What about the “Rats with complete suppression” value (Rat; at 4 hr, 100 mg/kg) of the same molecule?
**A.** at 4 hr in 2/3 rats at 100

**Q.** And the “Decrease in pain, Formalin Paw Test” value (Male Rj: NMRI mice; at 50, 250, 500 μmol/kg)?
**A.** Significant decrease in pain at 50 (p < 0.05), 250

**Q.** What about the “Licking Score (15 to 50 minutes post-formalin injection) % Change from Control” value (Male Rj: NMRI mice; [5]) of the same molecule?
**A.** −38%

**Q.** What about the “Licking Score (15 to 50 minutes post-formalin injection) % Change from Control” value (Male Rj: NMRI mice; [6]) of the same molecule?
**A.** −99%

**Q.** And the “Licking Score (15 to 50 minutes post-formalin injection) % Change from Control” value (Male Rj: NMRI mice; [7])?
**A.** −90%

**Q.** And the “Antinociception compared to gabapentin (584 μmol/kg; 100 mg/kg)” value (Male Rj: NMRI mice)?
**A.** much better than gabapentin (584 μmol/kg; 100 mg/kg)

**Q.** What about the “Cumulative duration of hippocampal discharges” value (adult mice (C57/B16)) of the same molecule?
**A.** decreased

**Q.** What about the “Number of hippocampal discharges” value (adult mice (C57/B16)) of the same molecule?
**A.** decreased

**Q.** What about the “Suppression of discharges through 80 minutes post-dose” value (adult mice (C57/B16)) of the same molecule?
**A.** 25 and 50 mg/kg, near complete

**Q.** What about the “Significant decrease in cumulative duration of and total number of hippocampal discharges” value (adult mice (C57/B16)) of the same molecule?
**A.** Dose-response relationship

**Q.** With `CCCCNc1cc(C(=O)N(C)CCCN(C)C)cc(S(N)(=O)=O)c1Oc1ccccc1` [NTP-2026, N-(3-(Dimethylamino)propyl)-N-methyl 3-Aminosulfonyl-5-N-butylamino-4-phenoxybenzamide] as the molecule, how does the “Activity in MES” value (Rat; 30, 100, 330 mg/kg) read?
**A.** No activity at 30, 100,

**Q.** And the “Solubility issues at the highest dose tested” value [2]?
**A.** Significant solubility issues

**Q.** What about the “Decrease in pain, Formalin Paw Test” value (Male Rj: NMRI mice; at 250, 500 μmol/kg) of the same molecule?
**A.** Significant decrease in pain at 250 (p < 0.01), 500

**Q.** What about the “Licking Score (15 to 50 minutes post-formalin injection) % Change from Control” value (Male Rj: NMRI mice; [5]) of the same molecule?
**A.** no effects

**Q.** What about the “Licking Score (15 to 50 minutes post-formalin injection) % Change from Control” value (Male Rj: NMRI mice; [6]) of the same molecule?
**A.** −49%

**Q.** What about the “Licking Score (15 to 50 minutes post-formalin injection) % Change from Control” value (Male Rj: NMRI mice; [7]) of the same molecule?
**A.** −82%

**Q.** And the “Cumulative duration of hippocampal discharges” value (adult mice (C57/B16))?
**A.** decreased

**Q.** And the “Number of hippocampal discharges” value (adult mice (C57/B16))?
**A.** decreased

**Q.** And the “Suppression of discharges through 80 minutes post-dose” value (adult mice (C57/B16))?
**A.** 50 mg/kg, near complete suppression of

**Q.** And the “Significant decrease in cumulative duration of and total number of hippocampal discharges” value (adult mice (C57/B16))?
**A.** Dose-response relationship
